The source of these data is paper PMC10996005, “Identification and Development of Cyclic Peptide Inhibitors of Hypoxia Inducible Factors 1 and 2 That Disrupt Hypoxia-Response Signaling in Cancer Cells” (Journal of the American Chemical Society, 2024).

One data set has as its system T-Rex-293 cells. Kind of data set: CytoTox-Glo cytotoxicity / viability assay. It is filed as cell-based, human. Particulars: doses up to 75 μM. The text has this: Following in vitro characterization and optimization of binding, we next assessed the effect of our cyclic peptides in mammalian cells. A cell line with a stably integrated reporter was constructed, in which the expression of yellow fluorescent protein (YFP) was placed under the control of a HRE. Thus, hypoxia would be expected to increase YFP expression (and subsequent fluorescence) in these cells, whereas treatment with a cell-permeable HIF inhibitor would be expected to reduce this fluorescence signal. A fusion cassette was designed containing the YFP gene preceded by three copies of the HRE sequence. This cassette was stably integrated into T-REx-293 cells as previously described.[12] […] The effect of this compound on the viability of T-Rex-293 was assessed with no effect observed at doses up to 75 μM (Figure S9a). […] It should be noted that the relative activity of each compound in this assay will be a combination of its cell permeability and HIF-inhibiting activity. […] We therefore continued to further characterize the cell activity of the 4-iodo-phenylalanine derivative. […]
Pancreatic cancer cells (PANC-1) were plated in a T75 flask at 80% confluency overnight under normoxic conditions. […] The concentration of the extracted proteins was measured using the BCA Protein Assay Kit (Sigma) following the manufacturer's instructions. […]

For the next data set, the target named is T1, HIF-1α/HIF-1β PPI (Homo sapiens, UniProt Q16665).
T1 construct: endogenous in cells; host or cells: HeLa
T1 sequence (Q16665 whole entry): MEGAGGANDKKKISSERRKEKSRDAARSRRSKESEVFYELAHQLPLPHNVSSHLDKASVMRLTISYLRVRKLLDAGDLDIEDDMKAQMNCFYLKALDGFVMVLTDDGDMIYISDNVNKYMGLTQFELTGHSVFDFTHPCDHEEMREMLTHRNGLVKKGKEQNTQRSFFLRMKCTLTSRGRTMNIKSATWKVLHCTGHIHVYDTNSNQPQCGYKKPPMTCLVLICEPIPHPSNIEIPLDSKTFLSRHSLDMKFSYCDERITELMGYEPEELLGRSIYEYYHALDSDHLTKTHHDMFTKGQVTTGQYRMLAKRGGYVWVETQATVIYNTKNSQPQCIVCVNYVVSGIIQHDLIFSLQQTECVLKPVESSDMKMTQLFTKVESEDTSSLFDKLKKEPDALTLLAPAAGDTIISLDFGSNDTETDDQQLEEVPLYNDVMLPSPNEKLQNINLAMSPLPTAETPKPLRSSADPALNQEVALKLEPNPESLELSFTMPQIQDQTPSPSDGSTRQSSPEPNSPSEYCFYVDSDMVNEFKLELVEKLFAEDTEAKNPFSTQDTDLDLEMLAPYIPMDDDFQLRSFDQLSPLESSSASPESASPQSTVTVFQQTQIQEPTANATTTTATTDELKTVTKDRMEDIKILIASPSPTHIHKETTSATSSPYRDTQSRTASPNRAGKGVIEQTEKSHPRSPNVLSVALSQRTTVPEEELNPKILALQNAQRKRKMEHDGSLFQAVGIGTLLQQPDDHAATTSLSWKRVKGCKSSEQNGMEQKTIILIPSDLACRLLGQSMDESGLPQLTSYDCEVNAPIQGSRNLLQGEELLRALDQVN
Kind of data set: Proximity-ligation assay (PLA) in DFX-treated HeLa cells. It is filed as cell-based. The settings on record: 50 μM compound vs DMSO. The method, then: We used a previously reported[26] proximity-ligation assay (PLA) to assess whether cyclo-CRLII(4-iodo)F disrupts the HIF-1α/HIF-1β PPI in cells. HeLa cells were treated with the hypoxia mimic desferrioxamine (DFX) and treated with either DMSO (control) or 50 μM of cyclo-CRLII(4-iodo)F; in the control-treated samples, we observed the red puncta associated with the PLA signal from the targeted PPI (Figure 6c, upper panels).
All reagents were purchased from Fisher Scientific or Sigma Aldrich UK unless specified otherwise.
Restriction enzymes and microbiology reagents were purchased from New England Biolabs Inc., Fisher Scientific (UK) or Promega (UK) and were used as directed by the manufacturer. Primers and oligonucleotides were synthesised by Integrated DNA Technologies (UK). DNA sequencing was carried out by Eurofins MWG Operon (Germany).
Construction of the RTHS and SICLOPPS library, screening, purification of recombinant HIF proteins, and the PLA was conducted as previously described in Miranda et al., J. Am. Chem. Soc., 2013, 135(28); […]
The labelled protein was separated from unreacted dye by elution through a PD minitrap G-25 column (GE healthcare). […] Extent of labelling was measured by the absorbance obtained using the UV-vis mode on a NanoDrop ND-1000 Spectrophotometer (NanoDrop Technologies, USA). […]

Molecules are shown by their SMILES. “Also recorded” adds a separate entry of the source. Where a SMILES comes first, the peptide text is derived from it. [ ]: non-standard residue; d: D form. Phe(4-I) = N[C@@H](Cc1ccc(I)cc1)C(=O)O

Take `CC[C@H](C)[C@@H]1NC(=O)[C@H](CC(C)C)NC(=O)[C@H](CCCNC(=N)N)NC(=O)[C@H](CS)NC(=O)[C@H](Cc2ccc(I)cc2)NC(=O)[C@H]([C@@H](C)CC)NC1=O` [cyclo-CRLII(4-iodo)F] (cyclo(CRLII[Phe(4-I)])): the “effect on the viability of T-Rex-293” value in the data set with T-Rex-293 cells is given as “no effect”. In addition, the “PLA signal (red puncta) of the HIF-1α/HIF-1β PPI” value at HIF-1α/HIF-1β PPI is given as “red puncta are absent; also recorded: the red puncta were not observed”.
